Experimental data: ChEMBL document CHEMBL4622846, “Synthesis and cytotoxic effects of 2-thio-3,4-dihydroquinazoline derivatives as novel T-type calcium channel blockers” (Bioorg Med Chem, 2020)
The source made the active and inactive calls. The rule behind the calls is not given here.

Legend:
HCT-116 = experiment: Cytotoxicity against human HCT116 cells assessed as reduction in cell viability after 48 hrs by MTT assay; type: functional, cell-based; settings: HCT-116, 48 h
[1] = molecular target: T1, Voltage-dependent T-type calcium channel subunit alpha-1I (Homo sapiens, UniProt Q9P0X4); experiment: Inhibition of human Cav3.3 expressed in tsA-201 cells by patch clamp electrophysiology; type: cell-based
[2] = molecular target: T2, Voltage-dependent T-type calcium channel subunit alpha-1H (Homo sapiens, UniProt O95180); experiment: Inhibition of human Cav3.2 expressed in tsA-201 cells by patch clamp electrophysiology; type: cell-based
[3] = molecular target: T3, Voltage-dependent T-type calcium channel subunit alpha-1G (Homo sapiens, UniProt O43497); experiment: Inhibition of human Cav3.1 expressed in tsA-201 cells at 10uM by patch clamp electrophysiology; type: cell-based
[4] = molecular target: T2, Voltage-dependent T-type calcium channel subunit alpha-1H; experiment: Inhibition of human Cav3.2 expressed in tsA-201 cells at 10uM by patch clamp electrophysiology; type: cell-based
[5] = molecular target: T3, Voltage-dependent T-type calcium channel subunit alpha-1G; experiment: Inhibition of human Cav3.1 expressed in tsA-201 cells by patch clamp electrophysiology; type: cell-based
A549 = experiment: Cytotoxicity against human A549 cells assessed as reduction in cell viability after 48 hrs by MTT assay; type: functional, cell-based; settings: A549, 48 h
[6] = molecular target: T1, Voltage-dependent T-type calcium channel subunit alpha-1I; experiment: Inhibition of human Cav3.3 expressed in tsA-201 cells at 10uM by patch clamp electrophysiology; type: cell-based

T2 sequence (O95180 whole entry): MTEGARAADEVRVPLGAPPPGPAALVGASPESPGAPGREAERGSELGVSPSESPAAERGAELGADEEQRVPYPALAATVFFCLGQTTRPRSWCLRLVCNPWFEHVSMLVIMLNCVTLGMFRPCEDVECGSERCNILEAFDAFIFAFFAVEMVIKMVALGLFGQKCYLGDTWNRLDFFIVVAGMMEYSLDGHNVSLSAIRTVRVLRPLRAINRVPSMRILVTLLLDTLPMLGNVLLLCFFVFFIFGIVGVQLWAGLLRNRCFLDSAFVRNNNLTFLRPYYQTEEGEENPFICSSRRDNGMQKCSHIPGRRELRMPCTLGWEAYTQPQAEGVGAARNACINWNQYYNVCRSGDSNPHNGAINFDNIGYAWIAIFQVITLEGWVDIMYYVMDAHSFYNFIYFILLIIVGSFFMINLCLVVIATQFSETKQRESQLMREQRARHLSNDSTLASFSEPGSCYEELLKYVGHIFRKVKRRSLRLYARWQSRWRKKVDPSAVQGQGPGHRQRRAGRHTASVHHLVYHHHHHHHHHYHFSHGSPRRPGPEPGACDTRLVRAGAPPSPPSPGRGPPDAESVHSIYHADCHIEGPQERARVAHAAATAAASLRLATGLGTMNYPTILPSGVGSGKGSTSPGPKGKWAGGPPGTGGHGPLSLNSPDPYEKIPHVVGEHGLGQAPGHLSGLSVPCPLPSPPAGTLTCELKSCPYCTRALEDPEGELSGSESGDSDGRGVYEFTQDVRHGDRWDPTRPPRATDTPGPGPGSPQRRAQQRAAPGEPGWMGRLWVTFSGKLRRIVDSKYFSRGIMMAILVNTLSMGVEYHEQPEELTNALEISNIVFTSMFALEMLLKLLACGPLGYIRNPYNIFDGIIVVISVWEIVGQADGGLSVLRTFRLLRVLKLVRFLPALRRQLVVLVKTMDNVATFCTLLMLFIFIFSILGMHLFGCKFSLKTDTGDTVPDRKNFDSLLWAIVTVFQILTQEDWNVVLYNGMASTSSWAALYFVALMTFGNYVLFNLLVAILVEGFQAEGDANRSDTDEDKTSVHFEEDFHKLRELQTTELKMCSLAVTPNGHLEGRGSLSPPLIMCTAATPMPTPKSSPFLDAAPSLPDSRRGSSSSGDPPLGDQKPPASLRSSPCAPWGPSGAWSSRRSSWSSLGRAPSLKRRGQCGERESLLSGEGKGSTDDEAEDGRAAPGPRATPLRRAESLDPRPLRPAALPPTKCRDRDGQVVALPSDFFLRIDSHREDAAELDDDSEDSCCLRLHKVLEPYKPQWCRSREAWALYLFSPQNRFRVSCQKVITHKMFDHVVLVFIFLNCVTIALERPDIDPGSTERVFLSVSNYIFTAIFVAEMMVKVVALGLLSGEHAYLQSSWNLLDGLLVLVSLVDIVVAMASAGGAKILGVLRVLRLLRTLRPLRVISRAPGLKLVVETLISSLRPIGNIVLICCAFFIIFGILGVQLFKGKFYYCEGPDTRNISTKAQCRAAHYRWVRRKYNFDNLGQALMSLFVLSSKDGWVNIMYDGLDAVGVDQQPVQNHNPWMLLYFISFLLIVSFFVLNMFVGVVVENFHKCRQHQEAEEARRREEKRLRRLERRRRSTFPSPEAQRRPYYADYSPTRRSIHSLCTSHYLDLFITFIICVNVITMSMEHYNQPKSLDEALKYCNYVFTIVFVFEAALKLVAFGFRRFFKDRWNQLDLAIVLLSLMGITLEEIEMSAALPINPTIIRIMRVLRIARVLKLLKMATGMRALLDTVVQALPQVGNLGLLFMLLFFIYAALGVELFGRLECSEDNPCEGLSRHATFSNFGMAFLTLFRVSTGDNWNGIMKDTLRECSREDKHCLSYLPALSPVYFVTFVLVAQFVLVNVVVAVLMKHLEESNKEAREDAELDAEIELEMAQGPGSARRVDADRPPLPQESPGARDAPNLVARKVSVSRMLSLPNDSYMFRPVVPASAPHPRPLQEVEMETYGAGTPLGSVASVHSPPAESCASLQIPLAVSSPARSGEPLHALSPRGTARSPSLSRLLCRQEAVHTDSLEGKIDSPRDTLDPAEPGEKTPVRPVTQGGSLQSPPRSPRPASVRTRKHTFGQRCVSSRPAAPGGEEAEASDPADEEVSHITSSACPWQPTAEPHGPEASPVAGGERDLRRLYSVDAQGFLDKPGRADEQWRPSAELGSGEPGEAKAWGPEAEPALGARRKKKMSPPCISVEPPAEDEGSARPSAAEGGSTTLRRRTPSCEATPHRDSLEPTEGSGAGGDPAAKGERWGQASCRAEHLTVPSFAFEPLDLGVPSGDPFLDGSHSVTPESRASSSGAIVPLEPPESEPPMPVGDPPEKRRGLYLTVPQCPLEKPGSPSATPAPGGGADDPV
T1 sequence (Q9P0X4 whole entry): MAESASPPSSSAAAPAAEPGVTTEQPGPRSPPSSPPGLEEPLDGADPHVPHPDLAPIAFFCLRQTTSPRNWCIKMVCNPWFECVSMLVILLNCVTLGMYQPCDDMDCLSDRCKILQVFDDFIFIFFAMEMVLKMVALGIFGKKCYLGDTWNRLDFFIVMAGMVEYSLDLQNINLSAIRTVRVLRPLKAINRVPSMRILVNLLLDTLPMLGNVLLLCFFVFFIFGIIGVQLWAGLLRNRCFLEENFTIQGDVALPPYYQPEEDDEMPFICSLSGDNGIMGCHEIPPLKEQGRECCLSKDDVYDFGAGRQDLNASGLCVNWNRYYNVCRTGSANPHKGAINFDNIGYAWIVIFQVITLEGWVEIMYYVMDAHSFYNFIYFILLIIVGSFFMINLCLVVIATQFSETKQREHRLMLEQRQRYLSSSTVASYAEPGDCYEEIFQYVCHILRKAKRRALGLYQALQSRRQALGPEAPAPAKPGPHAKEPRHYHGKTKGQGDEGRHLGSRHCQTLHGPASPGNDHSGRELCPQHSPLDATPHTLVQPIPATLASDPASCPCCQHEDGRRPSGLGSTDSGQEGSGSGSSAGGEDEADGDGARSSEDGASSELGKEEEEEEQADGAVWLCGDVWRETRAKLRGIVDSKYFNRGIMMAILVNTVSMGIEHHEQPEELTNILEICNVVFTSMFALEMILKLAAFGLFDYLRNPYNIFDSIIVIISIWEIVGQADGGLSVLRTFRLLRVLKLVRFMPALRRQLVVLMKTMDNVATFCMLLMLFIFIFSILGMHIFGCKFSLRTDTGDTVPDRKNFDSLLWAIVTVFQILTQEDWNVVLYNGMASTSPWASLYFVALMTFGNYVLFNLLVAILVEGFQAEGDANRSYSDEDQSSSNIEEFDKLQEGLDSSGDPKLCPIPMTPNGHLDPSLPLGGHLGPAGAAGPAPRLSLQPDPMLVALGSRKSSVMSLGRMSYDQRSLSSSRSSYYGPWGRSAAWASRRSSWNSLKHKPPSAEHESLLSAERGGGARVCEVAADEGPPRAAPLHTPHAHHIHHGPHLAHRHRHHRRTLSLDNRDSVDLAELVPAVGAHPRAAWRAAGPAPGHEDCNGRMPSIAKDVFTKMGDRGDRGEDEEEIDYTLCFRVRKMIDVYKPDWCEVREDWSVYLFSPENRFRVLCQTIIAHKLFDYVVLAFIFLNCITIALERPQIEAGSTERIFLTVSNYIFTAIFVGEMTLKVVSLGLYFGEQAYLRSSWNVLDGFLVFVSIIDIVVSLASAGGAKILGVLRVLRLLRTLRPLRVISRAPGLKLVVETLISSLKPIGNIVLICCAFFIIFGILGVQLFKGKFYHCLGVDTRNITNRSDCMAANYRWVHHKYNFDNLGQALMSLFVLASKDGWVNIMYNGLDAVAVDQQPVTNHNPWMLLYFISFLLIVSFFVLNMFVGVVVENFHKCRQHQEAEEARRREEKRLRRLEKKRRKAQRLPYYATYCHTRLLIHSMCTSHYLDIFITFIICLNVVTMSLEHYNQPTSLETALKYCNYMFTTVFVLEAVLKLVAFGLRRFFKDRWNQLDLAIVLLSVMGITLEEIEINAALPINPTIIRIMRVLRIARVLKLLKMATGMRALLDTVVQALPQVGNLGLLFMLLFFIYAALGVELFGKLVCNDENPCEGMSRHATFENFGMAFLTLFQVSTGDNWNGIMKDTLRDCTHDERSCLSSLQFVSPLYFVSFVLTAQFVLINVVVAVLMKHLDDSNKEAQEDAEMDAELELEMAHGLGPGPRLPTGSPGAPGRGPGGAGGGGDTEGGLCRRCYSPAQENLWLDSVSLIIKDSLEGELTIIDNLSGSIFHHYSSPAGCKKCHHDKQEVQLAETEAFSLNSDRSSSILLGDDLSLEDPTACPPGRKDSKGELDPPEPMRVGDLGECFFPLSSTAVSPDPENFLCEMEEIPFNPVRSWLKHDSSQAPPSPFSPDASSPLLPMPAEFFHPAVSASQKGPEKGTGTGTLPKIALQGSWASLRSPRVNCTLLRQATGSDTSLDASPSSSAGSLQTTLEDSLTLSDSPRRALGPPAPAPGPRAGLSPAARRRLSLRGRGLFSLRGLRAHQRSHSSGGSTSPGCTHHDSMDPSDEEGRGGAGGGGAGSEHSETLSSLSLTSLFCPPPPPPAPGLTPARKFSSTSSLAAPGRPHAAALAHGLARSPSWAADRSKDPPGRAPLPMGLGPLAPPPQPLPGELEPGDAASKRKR

| Compound | IC50 (HCT-116) [µM] | IC50 ([1]; read-out: IC50) [µM] | IC50 [2] [µM] | inhibition [3] [%] | inhibition [4] [%] | IC50 [5] [µM] | IC50 (A549) [µM] | inhibition [6] | IC50 [1] |
| --- | --- | --- | --- | --- | --- | --- | --- | --- | --- |
| O=C(CC1c2ccccc2N=C(SCCCCCN2CCCC2)N1c1ccc(-c2ccccc2)cc1)NCc1ccc(F)cc1 (stereo unspecified) | 6.2 | 13.6 | 276 | 51.5 | 69 | 15 | 19.8 | 55.9% |  |
| CN(C)CCCCCSC1=Nc2ccccc2C(CC(=O)NCc2ccccc2)N1c1ccc(-c2ccc(F)cc2)cc1 (stereo unspecified) | 9.2 | 9.06 | 4.18 | 97.6 | 75.6 | 0.25 | 17.6 | 66.7% |  |
| O=C(CC1c2ccccc2N=C(SCCCCCN2CCCC2)N1c1ccccc1)NCc1ccccc1 (stereo unspecified) | 31.3 | 6.19 | 7.71 | 60.4 | 61.6 | 77 | 98.1 | 78.3% |  |
| CN(C)CCCCCSC1=Nc2ccccc2C(CC(=O)NCc2ccccc2)N1c1ccc(-c2ccccc2)cc1 (stereo unspecified) | 9.6 | 1.76 | 2.4 | 76.2 | 83.9 | 7.77 | 18.1 | 85.6% |  |
| O=C(CC1c2ccccc2N=C(SCCCCCN2CCCC2)N1c1ccc(-c2ccccc2)cc1)NCc1ccccc1 (stereo unspecified) | 5.5 | 0.81 | 6.9 | 93.9 | 73.1 | 0.66 | 14.9 | 92.7% |  |
| CN(C)CCCCCSC1=Nc2ccccc2C(CC(=O)NCc2ccc(F)cc2)N1c1ccc(-c2ccc(F)cc2)cc1 (stereo unspecified) | 9.3 | 0.96 | 2.76 | 96.2 | 84.8 | 0.4 | 11.3 | 92% |  |
| CN(C)CCCCCSC1=Nc2ccccc2C(CC(=O)NCc2ccc(F)cc2)N1c1ccccc1 (stereo unspecified) | 38.8 |  | 832 | 26.7 | 7 |  | 36.8 | inactive | Not Active |
| O=C(CC1c2ccccc2N=C(SCCCCCN2CCCC2)N1c1ccc(-c2ccc(F)cc2)cc1)NCc1ccccc1 (stereo unspecified) | 12.5 | 5.1 | 0.26 | 83.9 | 97.5 | 2.18 | 17.8 | 68.2% |  |
| O=C(CC1c2ccccc2N=C(SCCCCCN2CCCC2)N1c1ccc(-c2ccc(F)cc2)cc1)NCc1ccc(F)cc1 (stereo unspecified) | 7.7 | 19.8 | 4.88 | 83.9 | 76.6 | 12.6 | 12.6 | 35.1% |  |
| CN(C)CCCCCN(C)C1=Nc2ccccc2C(CC(=O)NCc2ccccc2)N1c1ccc(-c2ccccc2)cc1 (stereo unspecified) | 5.6 |  |  |  | 89.3 |  |  |  |  |
| O=C(CC1c2ccccc2N=C(SCCCCCN2CCCC2)N1c1ccccc1)NCc1ccc(F)cc1 (stereo unspecified) | 27.1 |  | 57.4 | 60.1 | 40 | 13.5 | 89.9 | 22.1% |  |
| CN(C)CCCCCSC1=Nc2ccccc2C(CC(=O)NCc2ccc(F)cc2)N1c1ccc(-c2ccccc2)cc1 (stereo unspecified) | 6.4 | 6.1 | 3.14 | 31 | 83.1 | 27.4 | 5 | 69.3% |  |
| CN(C)CCCCCSC1=Nc2ccccc2C(CC(=O)NCc2ccccc2)N1c1ccccc1 (stereo unspecified) | 38.8 | 3.2 | 13.8 | 46.5 | 51.8 | 18.5 | 138 | 76% |  |
